{
  "source": "patent US11382877B2",
  "about": "“Formulation of (E)-2,4,6-trimethoxystyryl-3-[(carboxymethyl)amino]-4-methoxybenzylsulphone with enhanced stability and bioavailability” (ONCONOVA THERAPEUTICS, INC., priority 2017, dated 2022)",
  "key": {"[1]": {"conditions": "administered orally; cited from earlier work"}, "[2]": {"system": "immature bone marrow cells (blasts)", "test": "Intravenous infusion trials in MDS patients", "type": "in vivo", "description": "According to one embodiment, Rigosertib was given as an intravenous infusion to MDS patients. In one trial, patients received 800 mg Rigosertib for two to five days every other week. According to another embodiment, patients received 650 to 1,700 mg Rigosertib for three to six days every other week. According to yet another embodiment, patients were initially treated with 800 mg to 1,500 mg Rigosertib for two days every week for three weeks followed by one week without treatment. The treatment schedule in these studies was later changed to 1,800 mg Rigosertib per day for three days every other week."}, "[3]": {"test": "Phase 2 study in lower risk transfusion-dependent MDS patients, continuous vs intermittent oral administration, urinary adverse events", "type": "in vivo", "description": "Soft gelatin capsule of Rigosertib was tested in this phase 2 study in LR (Lower Risk intermediate-1 or low risk per IPSS classification) transfusion-dependent MDS patients. The capsules (560 mg) were administered twice a day, under fasting conditions, approximately 12 hours apart. The total dose of drug was 1120 mg per day. Various treatment regimens were tested: • Continuous administration, i.e 4 out of 4 weeks. 9 patients were treated. • Intermittent administration; i.e 2 weeks on and one week off. 35 patients were treated. Safety assessment: medical history, physical examination, vital signs (blood pressure, temperature, respiration rate, and pulse), weight, standard 12-lead ECG, laboratory evaluations, and toxicity and AE assessments were monitored throughout the study. Urinary Adverse Events are pollakiuria, micturition urgency, urinary tract pain, hematuria and dysuria."}, "[4]": {"system": "immature bone marrow cells", "test": "Higher risk MDS patients who previously failed Vidaza or Dacogen", "type": "in vivo", "conditions": "higher risk MDS patients after failure of azacitidine or decitabine", "excerpt": "In another embodiment, the efficacy of Rigosertib was shown in higher risk MDS patients who had previously failed treatment with Vidaza (azacitidine) or Dacogen (decitabine). […] These patients experienced at least a 50 percent decrease or stabilization in the number of immature bone marrow cells, and their median survival was about 36 weeks."}, "[5]": {"test": "Phase II, Part 2 study of shorter spacing between two oral doses with azacitidine, urinary adverse events", "type": "in vivo, patients", "conditions": "doses administered about 8 hours apart", "description": "This study was conducted in patients with high risk MDS. RAEB-t (Refractory Anemia with Excess Blasts in Transformation)/non-proliferative AML were eligible but patients with CMML (Chronic Myelomonocytic Leukemia) were excluded.\nThe Phase II, Part 2 component of the study consisted of 2 cohorts of up to 40 evaluable patients randomized 1:1 into 2 cohorts of up to 20 patients each to receive 1120 mg of rigosertib over 24 hours: either 560 mg in the morning before breakfast in the fasting state and 560 mg in the afternoon, or 840 mg in the morning before breakfast in the fasting state and 280 mg in the afternoon. The afternoon dose in both cohorts must be administered at 3 PM (±1 hr) at least 2 hours after lunch. Each cohort will be stratified among HMA (hypomethylating agents) naïve and HMA refractory patients.\nEach patient was required to complete a diary indicating the day and time of drug intake and record daily urinary dipstick pH and microscopic hematuria test. Rigosertib was supplied as 280 mg and 70 mg (in the event that different doses are needed) capsules by Onconova. […]\nSafety assessment: medical history, physical examination, vital signs (blood pressure, temperature, respiration rate, and pulse), weight, standard 12-lead ECG, laboratory evaluations, and toxicity and AE assessments were monitored throughout the study. […]"}, "[6]": {"conditions": "560 mg bid q12 hrs, intermittent 2 weeks on/1 week off, n = 35"}},
  "note": "Structures can show the parent of a compound that is named as a salt.",
  "data": [
    {"smiles": "COc1cc(OC)c(/C=C/S(=O)(=O)Cc2ccc(OC)c(NCC(=O)O)c2)c(OC)c1", "note": "[Rigosertib, (E)-2,4,6-trimethoxystyryl-3-[(carboxymethyl)amino]-4-methoxybenzylsulphone sodium salt]", "values": [
      {"measurement": "Common adverse event", "setting": "[1]", "value": "urothelial toxicity"},
      {"measurement": "Decrease or stabilization in the number of immature bone marrow cells (blasts)", "setting": "[2]", "value": "≥ 50", "unit": "%"},
      {"measurement": "Incidence of Urinary AEs, Grade 1/2 (% of Patients)", "setting": "[3]; [6]", "value": 71, "unit": "%"},
      {"measurement": "Incidence of Urinary AEs, Grade 1/2, number of patients", "setting": "[3]; [6]", "value": 25},
      {"measurement": "Incidence of Urinary AEs, Grade 3 (% of Patients)", "setting": "[3]; [6]", "value": 23, "unit": "%"},
      {"measurement": "Incidence of Urinary AEs, Grade 3, number of patients", "setting": "[3]; [6]", "value": 8},
      {"measurement": "Urinary adverse events (in words)", "setting": "[3]; continuous administration 4 out of 4 weeks, 560 mg twice a day", "value": "high urinary adverse events"},
      {"measurement": "Tolerability compared to continuous administration", "setting": "[3]; intermittent administration 2 weeks on and one week off, 560 mg twice a day", "value": "better tolerated"},
      {"measurement": "Decrease or stabilization in the number of immature bone marrow cells", "setting": "[4]", "value": "≥ 50", "unit": "%"},
      {"measurement": "Median survival", "setting": "[4]", "value": "about 36 weeks"},
      {"measurement": "Incidence of urinary adverse events (in words)", "setting": "[5]", "value": "dramatic reduction"}
    ]}
  ]
}
